Data set [1] has as its target T1, Spike RBD/ACE2 (19–615) interaction (Severe acute respiratory syndrome coronavirus 2, UniProt P0DTC2).
T1 construct: S protein RBD (aa residues 319–541) of SARS-CoV-2; expressed in transfected cells; host or cells: HEK293T
Description: cell-based. In kind it is cell-based, SARS-CoV-2. Particulars: for inhibition at 10 µM: HEK-293T, 48 h, read-out: suppression of Spike RBD/ACE2 (19–615) interaction.

Another data set relates to HEK293T cells. Put plainly: MTT cytotoxicity assay in HEK293T cells. In kind it is cell-based. Particulars: 100 μM, 48 h. As for the experimental part:
(§1) Chemical compounds were dissolved and serially diluted in DMSO. Their cytotoxicity was assessed using an MTT assay. Briefly, HEK293T, SH-SY5Y or Vero E6 cells were cultured in 96-well plates (4 × 10^4 cells/well) at 37 °C in a 5% CO2 atmosphere. Cells were treated for 48 h with varying concentrations of the compounds (100–0.1 μM) or solvent. […] Treated cells were incubated for 4 h with […] MTT (Applichem). After incubation, the MTT-containing medium was removed and formazan crystals were dissolved in DMSO. The optical density (OD) of formazan solution at 570 and 630 nm was measured in a SPARK plate reader (Tecan).
In general terms: Tetrazolium assays rely on reduction of a dye to a coloured formazan, in cell work by metabolically active cells.

The next data set relates to Vero E6 cells. Description: MTT toxicity assay in Vero E6 cells. The data set is classed as cell-based. Conditions: 48 h. On the procedure:
as §1

The values below come from paper PMC11600510 (Journal of Chemical Information and Modeling, 2024).

On to `Cc1cc(O)c2c(c1)C(=O)c1cc(O)cc(O)c1C2=O` [Emodin, reference compound], for which the “suppression of Spike/ACE2 interaction” value in data set [1] (100 μM) is given as approximately 27%. For the same compound, the cytotoxicity result with HEK293T cells was “non-cytotoxic”.

Consider `O=[N+]([O-])c1ccc(/C=C/C[n+]2cn(CCc3ccc4ccccc4c3)c3ccccc32)cc1.[Br-]` [CKP-47, (E)-1-(2-(Naphthalen-2-yl)ethyl)-3-(3-(4-nitrophenyl)allyl)-1H-benzo[d]imidazol-3-ium Bromide], for which the melting point – broadly, the temperature of the solid-liquid transition – was 176 to 177 °C (dec.). In addition, the inhibition at 10 µM in data set [1] amounted to 34%. Also, the “toxicity against Vero E6 cells” value in the data set on Vero E6 cells is listed as “toxic”.

Compound `Clc1ccc(/C=C/C[n+]2cn(Cc3ccc4ccccc4c3)c3ccccc32)cc1.[Br-]` [CKP-32, (E)-3-(3-(4-Chlorophenyl)allyl)-1-(naphthalen-2-ylmethyl)-1H-benzo[d]imidazol-3-ium Bromide] yielded a melting point of 166 to 167 °C. Also, in data set [1], the inhibition at 10 µM turned out to be 70%. In the data set on Vero E6 cells, the “toxicity against Vero E6 cells” value is recorded as “toxic”.
